Here are results for 14 compounds from ChEMBL document CHEMBL1201862, “PubChem BioAssay data set” (2004).

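Test compounds were applied to cells in 96-well plates for 48 hours at 5 doses. Abbreviation: GI50, concentration required for 50% inhibition of growth.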 Active and inactive are the calls of the source. No stated cut-off is given here; in the data, active = GI50 up to about 1.1 µM and inactive = higher.

Among the test systems are UO-31; SF-268; M19-MEL; OVCAR-5; RPMI-8226; 786-0; HOP-92; U-251; MOLT-4; HCT-116; A549; SF-295; M14; OVCAR-8; IGROV-1.
Test in all cases: inhibition of tumour cell growth, NCI panel, 48 h

For `Cc1ccc(C(c2c(O)c3ccccc3n(-c3ccccc3)c2=O)c2c(O)c3ccccc3n(-c3ccccc3)c2=O)cc1`, the GI50 in the experiment with UO-31 was > 100 µM (inactive); in the experiment with SF-268, 82.2 µM (inactive); in the experiment on M19-MEL, > 100 µM (inactive); with OVCAR-5 it was > 100 µM (inactive); in the experiment on RPMI-8226, > 100 µM (inactive); in the experiment on 786-0 it was 38.1 µM (inactive). The GI50 in the experiment on HOP-92 was > 100 µM (inactive); with U-251, > 100 µM (inactive); in the experiment on MOLT-4, 24.2 µM (inactive); in the experiment with HCT-116 it was > 100 µM (inactive); in the experiment with A549, > 100 µM (inactive).

Consider `CC1(C)OCN(c2ccc(S(N)(=O)=O)cc2)Cn2c1nc1ccccc12`, for which the GI50 in the experiment with UO-31, in the experiment on SF-268, in the experiment with M19-MEL, in the experiment on SF-295, in the experiment on RPMI-8226 and with M14 was > 100 µM (inactive) in each case. Also, the GI50 with 786-0, in the experiment with OVCAR-8, in the experiment on HOP-92, with U-251, in the experiment with MOLT-4 and in the experiment on IGROV-1 was > 100 µM (inactive) each time. The GI50 in the experiment on HCT-116 and with A549 was > 100 µM (inactive) throughout.

Take `CN(C)c1ccc(C(=C2C=CC(=[N+](C)C)C=C2)c2ccc(N(C)C)cc2)cc1` [GENTIAN VIOLET]: the GI50 with UO-31 was 0.318 µM (active); with SF-268 it was 0.133 µM (active); in the experiment on M19-MEL, 0.173 µM (active); in the experiment with SF-295, 0.0402 µM (active); with OVCAR-5, 0.202 µM (active); in the experiment with RPMI-8226, 0.0237 µM (active). The GI50 is 0.163 µM (active) with M14; 0.0923 µM (active) in the experiment with 786-0; 0.196 µM (active) in the experiment on HOP-92; 0.0354 µM (active) in the experiment on U-251; 0.144 µM (active) in the experiment on MOLT-4; 0.21 µM (active) in the experiment on IGROV-1. Besides, in the experiment with A549, the GI50 is 0.0395 µM (active).

Regarding `COc1ccc(-c2c(N)[n+]([O-])c3ccccc3[n+]2[O-])cc1OC`, the GI50 with UO-31, in the experiment with SF-268, with M19-MEL, in the experiment on SF-295, with OVCAR-5 and with RPMI-8226 was > 100 µM (inactive) throughout. For the same compound, the GI50 in the experiment with M14, with 786-0, with OVCAR-8, in the experiment with HOP-92, with U-251 and in the experiment on MOLT-4 was > 100 µM (inactive) each time. Besides, the GI50 in the experiment on IGROV-1, in the experiment with HCT-116 and in the experiment on A549 was > 100 µM (inactive) in each case.

Regarding `Oc1ccc2c(O)cc(-c3ccccc3)nc2c1`, the GI50 was 19.3 µM (inactive) in the experiment on UO-31; 32.4 µM (inactive) with SF-268; 19.5 µM (inactive) in the experiment on M19-MEL; 75 µM (inactive) in the experiment on SF-295; 58.9 µM (inactive) in the experiment on OVCAR-5; 17.5 µM (inactive) with RPMI-8226. The GI50 in the experiment with M14 is 19.7 µM (inactive); with 786-0, 31.2 µM (inactive); with OVCAR-8 it was 32.7 µM (inactive); with HOP-92, 29.3 µM (inactive); in the experiment on U-251, 31.3 µM (inactive); in the experiment on MOLT-4 it was 21.1 µM (inactive). In addition, the GI50 with IGROV-1 was 29 µM (inactive); with HCT-116, 17.4 µM (inactive); in the experiment with A549, 23.1 µM (inactive).

In the case of `C=C1C(=O)OC2CC3(C)C=CC(=O)C(=C)C3CC12` (stereo not given), the GI50 is 1.75 µM (inactive) with UO-31; 2.59 µM (inactive) in the experiment with SF-268; 1.69 µM (inactive) in the experiment on M19-MEL; 13.9 µM (inactive) in the experiment with SF-295; 3.24 µM (inactive) with OVCAR-5; 0.589 µM (active) with RPMI-8226. Also, the GI50 is 1.46 µM (inactive) with M14; 1.76 µM (inactive) in the experiment with 786-0; 1.55 µM (inactive) in the experiment with OVCAR-8; 1.91 µM (inactive) in the experiment with HOP-92; 3.79 µM (inactive) in the experiment with U-251; 1.03 µM (active) in the experiment on MOLT-4. For the same compound, the GI50 in the experiment with IGROV-1 was 2.28 µM (inactive); in the experiment with HCT-116 it was 1.28 µM (inactive); in the experiment with A549, 5.62 µM (inactive).

Regarding `O=C(CCc1nnc(S)[nH]1)Nc1cc(Cl)c(Cl)cc1Cl`, the GI50 in the experiment with UO-31, in the experiment with SF-268, in the experiment with M19-MEL, with SF-295, with OVCAR-5 and in the experiment with RPMI-8226 was > 100 µM (inactive) in each case. The GI50 in the experiment with M14, in the experiment on 786-0, with OVCAR-8, in the experiment with HOP-92, in the experiment with U-251 and in the experiment with MOLT-4 was > 100 µM (inactive) in each case. In addition, the GI50 in the experiment on IGROV-1, in the experiment on HCT-116 and with A549 was > 100 µM (inactive) in each case.

For `Cc1ccc(/C=C/C(=O)c2sc(C(N)=S)nc2C)cc1`, the GI50 in the experiment with UO-31, in the experiment on SF-268, in the experiment with M19-MEL, in the experiment on SF-295, in the experiment with OVCAR-5 and in the experiment on RPMI-8226 was > 100 µM (inactive) in each case. The GI50 with 786-0, with OVCAR-8, in the experiment with HOP-92, with U-251, in the experiment on MOLT-4 and with IGROV-1 was > 100 µM (inactive) in each case. Besides, the GI50 in the experiment on A549 was > 100 µM (inactive).

Regarding `Cn1c2ccccc2c2cc(-c3ccccc3)c3c(c21)C(=O)c1ccccc1C3=O`, the GI50 in the experiment with UO-31 is 11 µM (inactive); in the experiment with SF-268, 19.1 µM (inactive); with M19-MEL it was 2.25 µM (inactive); in the experiment with SF-295, 21.5 µM (inactive); with RPMI-8226, 4.67 µM (inactive); with M14, 14.3 µM (inactive). Also, the GI50 in the experiment with 786-0 was 16.9 µM (inactive); in the experiment on OVCAR-8, 18.2 µM (inactive); with HOP-92 it was 12.3 µM (inactive); in the experiment on MOLT-4, 5.04 µM (inactive); in the experiment with IGROV-1, 21 µM (inactive); with HCT-116, 15.8 µM (inactive). Besides, the GI50 with A549 was 20.4 µM (inactive).

Turning to `Nn1c(CCCl)nc2c(Br)cc(Br)cc2c1=O`, the GI50 with UO-31 was 25.1 µM (inactive); with SF-268, 37.1 µM (inactive); with M19-MEL, 32.1 µM (inactive); with SF-295 it was 31.7 µM (inactive); in the experiment with OVCAR-5 it was 30.1 µM (inactive); in the experiment with RPMI-8226, 24.4 µM (inactive). Further, the GI50 with M14 is 30.3 µM (inactive); in the experiment with 786-0, 27.7 µM (inactive); in the experiment with OVCAR-8, 41.5 µM (inactive); in the experiment with HOP-92 it was 33 µM (inactive); with U-251, 23.1 µM (inactive); in the experiment with MOLT-4, 22.7 µM (inactive). The GI50 was 21 µM (inactive) with IGROV-1, 25.3 µM (inactive) in the experiment on HCT-116 and 43.7 µM (inactive) in the experiment on A549.

Consider `Cc1ccc(S(=O)OC2C3CC4CC(C3)CC2C4)cc1` (stereo not given), for which the GI50 with UO-31, in the experiment on SF-268, in the experiment on M19-MEL, with SF-295, in the experiment on OVCAR-5 and in the experiment with RPMI-8226 was > 100 µM (inactive) each time. Also, the GI50 in the experiment on M14, in the experiment with 786-0, with OVCAR-8, with HOP-92, in the experiment with U-251 and in the experiment on MOLT-4 was > 100 µM (inactive) each time. Besides, the GI50 in the experiment with IGROV-1, in the experiment with HCT-116 and in the experiment with A549 was > 100 µM (inactive) each time.

Take `C[n+]1c2n(c3nc(N)[nH]c(=O)c31)C1OC(C2)C(O)C1O` (stereo not given): the GI50 in the experiment with UO-31, with SF-268, in the experiment on M19-MEL, in the experiment on SF-295, in the experiment with OVCAR-5 and in the experiment with M14 was > 100 µM (inactive) each time. Besides, the GI50 in the experiment with 786-0, with OVCAR-8, in the experiment on HOP-92, in the experiment on U-251, in the experiment on MOLT-4 and in the experiment on IGROV-1 was > 100 µM (inactive) each time. Besides, the GI50 with HCT-116 and in the experiment with A549 was > 100 µM (inactive) in each case.

Turning to `CCCCN(CCCC)CC(C(=O)Nc1ccc([N+](=O)[O-])cc1[N+](=O)[O-])/C(C)=N\NC(=O)c1ccncc1` (stereo not given), the GI50 in the experiment on UO-31, with SF-268, in the experiment on M19-MEL, with SF-295, with OVCAR-5 and in the experiment with RPMI-8226 was > 100 µM (inactive) in each case. The GI50 with M14 was > 100 µM (inactive); with 786-0, > 100 µM (inactive); with OVCAR-8, > 100 µM (inactive); in the experiment with HOP-92, 90.6 µM (inactive); in the experiment on U-251 it was > 100 µM (inactive); in the experiment with MOLT-4, > 100 µM (inactive). In addition, the GI50 in the experiment with IGROV-1 and with A549 was > 100 µM (inactive) each time.

`CC(C)(C)C(C#N)(C#N)c1ccc(C(C#N)(C#N)C(C)(C)C)nn1`: the GI50 in the experiment on UO-31 is > 100 µM (inactive); in the experiment with SF-268 it was 86.7 µM (inactive); with M19-MEL, > 100 µM (inactive); in the experiment with SF-295 it was > 100 µM (inactive); with OVCAR-5 it was > 100 µM (inactive); in the experiment with RPMI-8226, > 100 µM (inactive). The GI50 with M14 is > 100 µM (inactive); in the experiment with 786-0 it was 74 µM (inactive); in the experiment on OVCAR-8, > 100 µM (inactive); in the experiment with HOP-92 it was 72.4 µM (inactive); in the experiment on MOLT-4, > 100 µM (inactive); in the experiment with IGROV-1 it was > 100 µM (inactive). In the experiment with A549, the GI50 is > 100 µM (inactive).
